Source: ChEMBL document CHEMBL1145976, “Non-peptide angiotensin II receptor antagonists: chemical feature based pharmacophore identification” (J Med Chem, 2003)

What follows are compounds tested against T1, Angiotensin II receptor (AT-1) type-1 (Rattus norvegicus, UniProt P29089+P25095) (assay: Inhibitory concentration that gives 50% displacement of specific binding at labeled angiotensin II type 1 receptor in rat adrenal cortical membranes.).
T1 sequence (P29089 whole entry): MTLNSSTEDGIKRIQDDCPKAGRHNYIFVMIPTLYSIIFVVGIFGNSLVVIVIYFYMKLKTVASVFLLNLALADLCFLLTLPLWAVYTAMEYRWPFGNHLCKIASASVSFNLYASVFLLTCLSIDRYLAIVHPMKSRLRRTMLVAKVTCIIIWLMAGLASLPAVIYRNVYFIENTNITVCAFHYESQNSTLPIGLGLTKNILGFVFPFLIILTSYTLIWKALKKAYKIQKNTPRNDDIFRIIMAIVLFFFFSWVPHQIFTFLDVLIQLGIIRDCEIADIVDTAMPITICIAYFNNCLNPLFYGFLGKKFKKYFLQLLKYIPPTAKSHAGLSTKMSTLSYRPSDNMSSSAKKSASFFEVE
T1 sequence (P25095 whole entry): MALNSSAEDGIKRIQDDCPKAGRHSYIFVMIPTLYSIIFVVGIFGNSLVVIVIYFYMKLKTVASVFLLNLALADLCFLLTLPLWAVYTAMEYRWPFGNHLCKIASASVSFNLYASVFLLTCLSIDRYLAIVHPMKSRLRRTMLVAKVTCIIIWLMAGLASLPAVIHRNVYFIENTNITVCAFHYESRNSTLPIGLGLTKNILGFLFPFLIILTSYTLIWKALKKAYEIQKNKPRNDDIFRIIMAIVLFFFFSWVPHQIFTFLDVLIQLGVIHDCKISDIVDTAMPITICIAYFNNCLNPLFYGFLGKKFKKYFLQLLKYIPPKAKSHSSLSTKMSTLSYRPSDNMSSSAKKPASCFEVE
Type: cell membranes, Membrane

IC50 [µM] | SMILES
0.5 | CCCCc1nc(Cl)c(CC(=O)OC)n1Cc1ccc(NC(=O)c2ccccc2NS(=O)(=O)C(F)(F)F)cc1
2.8 | CCCCc1nc(Cl)c(COC)n1Cc1ccc(NC(=O)Cc2ccccc2CC(=O)O)cc1
13 | CCCCc1nc(Cl)c(CC(=O)O)n1Cc1ccc(CC(=O)O)cc1
